# Assay results: US5223411A, “Nonionic surfactants having a carbamoyl group and process for treatment of a proteins containing medium using the same” (Centre National de la Recherche Scientifique (CNRS), priority 1990, dated 1993)
# Values joined by “and” are separate entries in the source; they are usually repeats but may differ in a detail not shown here. Identical values can stand only once. Like-named read-outs stand apart in the source and are kept apart here.
# Legend:
# [1] = Solubility in water, usual buffers and organic solvents; assay type: physicochemical
# [2] = Stability of HECAMEG solutions; assay type: physicochemical; conditions: 4° C.
# [3] = CMC, iodine method of Ross and Olivier; assay type: physicochemical; conditions: iodine spectrophotometric assay
# Description: (§1) The CMC of HECAMEG was colorimetrically determined with the iodine method of Ross and Olivier and the Coomassie blue G method of Rosenthal and Koussaie and spectrofluorometrically with the technique of Vendittis et al. In the latter case, excitation was performed at 370 nm and emission recorded at 490 nm.
# (§2) The CMC of the detergent was estimated by three distinct spectrophotometric methods of OG (n-octylα-D glucopyranoside) was used for comparison. The iodine spectrophotometric assay indicated a CMC of 17 mM while values of 14.5 and 15 mM were obtained with Coomassie blue G, and 19.5 mM was obtained by spectrofluorometry at 4° and 20° C. The second method was not reliable with OG, while the two other methods indicated for this surfactant, as expected, a CMC of 25 mM.
# [4] = CMC, Coomassie blue G method of Rosenthal and Koussaie; assay type: physicochemical
# Description: as §1, §2
# [5] = CMC, spectrofluorometry (technique of Vendittis et al.); assay type: physicochemical; conditions: for CMC: spectrofluorometry at 4° and 20° C.
# Description: as §1, §2
# [6] = Detergent dialysis (Lipoprep apparatus); assay type: physicochemical; conditions: 30 mM in 50 mM Na phosphate pH 7.4, 5 kDa cutoff membranes, 25° C.
# Description: Dialysis experiments with HECAMEG were performed with the Lipoprep apparatus using a three-compartment Teflon cell with two cellulose dialysis membranes (molecular mass cutoff 5 kDa). The central compartment was filled with 8 ml of 30 mM HECAMEG in 50 mM Na phosphate buffer, pH 7.4. The same buffer, but without detergent circulated through the two side compartment for 24 h at 25° C. Dialysis speed was estimated by measuring HECAMEG concentration within the central cell.
# The dialyzability of HECAMEG was estimated by the use of the Lipoprep dialysis system under conditions corresponding to those used for the preparation of liposomes. […] Indeed, the concentration of HECAMEG in the central compartment of the cell dropped by 50% upon 3 h of dialysis and the surfactant was no longer detected after about 18 h.
# [7] = molecular target: T1, bacteriorhodopsin from the purple membrane of H. halobium (Halobacterium salinarum, UniProt P02945); assay: Membrane protein extraction with detergents, purple membrane
# T1 construct: The untrated (native) purple membrane of H. halobium; endogenous in cells; host or cells: Halobacterium halobium R1, purified purple membrane
# T1 sequence (P02945 14-262): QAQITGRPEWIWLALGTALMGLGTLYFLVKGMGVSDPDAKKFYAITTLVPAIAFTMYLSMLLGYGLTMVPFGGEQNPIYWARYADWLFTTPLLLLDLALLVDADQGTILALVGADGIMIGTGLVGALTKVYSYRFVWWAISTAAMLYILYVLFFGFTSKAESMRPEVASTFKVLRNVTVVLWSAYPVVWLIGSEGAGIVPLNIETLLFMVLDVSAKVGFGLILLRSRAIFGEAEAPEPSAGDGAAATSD
# Source text: Spiroplasma melliferum B88 was cultivated and membranes were purified as described. The purple membrane of Halobium R1 was purified according to Oesterhelt and Stoeckenius (22). Pasteurella multocida was cultivated in liquid medium containing per liter 20 g of Tryptose (Difco), 1 g of glucose, 5 g of NaCl, and 2,5 g of yeast extract (Difco), pH 7.4. The cells were harvested by centrifugation and disrupted with a French press. Plasma membranes were isolated according the technique of Osborn and Munson.
# In order to extract membrane proteins, 200 μl of a membrane suspension in 0.1 M Na phosphate buffer (pH 7.4) was mixed with 200 μl of detergent dissolved in water. After 90 min at room temperature, the mixture was centrifuged at 260,000 g for 15 min at 20° C. (Beckman TL-100 ultracentrifuge, TL A 100.1 rotor). The supernatant was recovered for further analysis, while the pellet was dispersed in 400 μl of 2% SDS in 50 mM Tris-HCl buffer (pH 8.0). After 60 min at room temperature, the mixture was centrifuged as above and the supernatant recovered for analysis.
# It was possible to extract up to 75% of bacteriorhodopsin from the purple membrane and 40% of protein from the spiroplasmal membrane with 75 mM HECAMEG. This corresponds respectively to ratios of 9 and 26 ug of protein/μmol of detergent. The efficacy of the extraction was not improved by increasing the detergent concentration. […]
# [8] = molecular target: T2, spiralin, the main protein of the S. melliferum membrane (Spiroplasma melliferum, UniProt P21625)
# T2 construct: Spiroplasma melliferum B88 was cultivated and membranes were purified as described; endogenous in cells; host or cells: Spiroplasma melliferum B88, purified membranes
# Description: Since the membrane of melliferum has a complex protein composition, the protein extracted by HECAMEG was analyzed by SDS PAGE. Separation of polypeptides was performed in 100×100×4 mm gels in 40 mM Tris-20 mM Na acetate buffer (pH 7.4) containing 2 mM EDTA and 0.1% SDS. The upper gel contained 4.83% acrylamide and 0.17% bisacrylamide while the lower separating gel contained 7.72% acrylamide and 0.28% bisacrylamide. The samples contained 2% SDS and 0.12 M 2 mercaptoethanol and were heated at 60° C. for 5 min prior to electrophoresis. Bromphenol blue was used as the tracking dye. Protein bands were stained with Coomassie blue R-250 in an acetic acid/methanol/water mixture (1/4/5,v/v). […] Optimal selectivity was obtained with surfactant concentration in the 60 to 65 mM range.
# spiralin = molecular target: T3, spiralin (Spiroplasma melliferum, UniProt P21625); conditions: crossed immunoelectrophoresis, rabbit antibodies against S. melliferum membrane
# T3 construct: Spiroplasma melliferum B88 was cultivated and membranes were purified as described; endogenous in cells; host or cells: Spiroplasma melliferum B88, purified membranes
# Description: Antibodies directed against the S. melliferum membrane were prepared in rabbits as described. The hyperimmune sera were filtered through 0.45-μm-pore membranes and stored at -25° C. Crossed immunoelectrophoresis was performed according to the method of Laurell in 1% agarose gel in veronal buffer, pH 8.6 (I=0.03). After unprecipitaded proteins where eluted and gels were dried, immunoprecipitates were stained with Coomassie blue R-250.
# bacteriorhodopsin = molecular target: T4, bacteriorhodopsin (Halobacterium salinarum, UniProt P02945); assay: Absorbance spectrum of bacteriorhodopsin; parameters: species or system H. halobium; conditions: native 558 nm
# T4 construct: The untrated (native) purple membrane of H. halobium; endogenous in cells; host or cells: Halobacterium halobium R1, purified purple membrane
# T4 sequence (P02945 14-262): T1 sequence (P02945 14-262)
# Description: Absorbance of dark-adapted bacteriorhodopsin was recorded between 350 and 700 nm. […] When the membrane was solubilized with 1% SDS, leading to the extensive denaturation of bacteriorhodopsin, the absorbance at 558 nm was lost to the benefit of a new maximum at 390 nm, corresponding to free retinal dissolved in SDS. These two spectra were thus representative, respectively, of the native and denatured forms of bacteriorhodopsin. Upon extraction with HECAMEG, the absorption spectrum of the protein was similar to that of the native state protein with, however, a slight blue shift in the absorption maximum (λmax=550 nm). Some absorption was also recorded at 390 nm, but it was much lower than that in SDS, even when HECAMEG was used at concentrations up to 0.1 M. Because of the scatering of light by membrane particles, the 390-nm peak could not be observed in untreated samples.
# [9] = system: P. multocida succinate dehydrogenase; assay: Enzyme assay, succinate dehydrogenase; assay type: biochemical, Pasteurella multocida; conditions: for Km: read-out: Km ± SD
# Description: (§3) P. multocida succinate dehydrogenase was assayed as described by Osborn et al in […] Na phosphate buffer (pH 7.4) containing 10 mM KCN, Na succinate (concentration range: 0.25 to 25 mM), 30 ug of thiazolyl blue, and 10 μg of phenazine methosulfate per milliliter. The samples contained 25, 50, or 100 μg of plasma membrane protein per milliliter and the absorbance at 550 nm was recorded for 10 min at 25° C.P. multocida NADH oxidase was assayed in 50 mM Tris-HCl buffer (pH 8.0) containing 0.2 mM dithiothreitol and 0.12 mM NADH. The samples contained 50,75, or 100 μg of plasma membrane protein per milliliter and the absorbance at 340 nm was recorded as above. The activity of the soluble form of Escherichia coli β-lactamase was measured by using Nitrocefin as substrate and by monitoring the rate of increase in the absorbance at 488 nm for 3 min at 25° C. One milliliter of 20 mM Na phosphate buffer (pH 7.4) contained Nitrocefin (concentration range: 5 to 20 uM) and 0.76 ug (i.e., 2×10^-3 units) of β-lactamase.
# (§4) The four enzyme activities were measured in the absence of surfactants and in the presence of 3 or 30 mM HECAMEG. Controls were also performed with 35 mM SDS. Km and V max were determined from Lineweaver-Burk plots, each point being the average of three estimations.
# [10] = system: P. multocida NADH oxidase; assay: Enzyme assay, NADH oxidase; assay type: biochemical, Pasteurella multocida; conditions: for Km: read-out: Km ± SD
# Description: as §3, §4
# [11] = system: Escherichia coli β-lactamase; assay: Enzyme assay, β-lactamase (Nitrocefin substrate); assay type: biochemical; conditions: for Km: read-out: Km ± SD
# Description: as §3, §4
# [12] = molecular target: T5, Bovine milk lactoperoxidase (Bos taurus, UniProt P80025); assay: Enzyme assay, lactoperoxidase (o-dianisidine substrate); assay type: biochemical
# T5 construct: from tissue; host or cells: bovine milk
# Description: Bovine milk lactoperoxidase was assayed according to George except that o-dianisidine was used as the substrate instead of gaiacol. One milliliter of 20 mM Na phosphate buffer (pH 7.4) contained […] (concentration range: 0.06 to 0.9 mM) 1 mM o-dianisidine, and 25×10^-3 μg (i.e., 1.15×10^-3 units) of lactoper oxidase. The absorbance at 435 nm was recorded as for β-lactamase.
# as §4
# [13] = stated for comparison; cited from earlier work
# T2 sequence (P21625 24-242): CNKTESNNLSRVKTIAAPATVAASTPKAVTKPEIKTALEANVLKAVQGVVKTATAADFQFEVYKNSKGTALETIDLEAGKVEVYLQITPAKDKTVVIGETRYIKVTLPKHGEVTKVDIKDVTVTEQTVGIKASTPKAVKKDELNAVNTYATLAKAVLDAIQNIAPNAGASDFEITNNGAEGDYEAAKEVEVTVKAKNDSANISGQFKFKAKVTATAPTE
# T3 sequence (P21625 24-242): as above
structure (smiles),measurement,setting,value
"CCCCCCCNC(=O)OC[C@H]1O[C@H](OC)[C@H](O)[C@@H](O)[C@@H]1O [HECAMEG, 6-0 (N-Heptylcarbamoyl) methyl α-D-glucopyranoside]",solubility in water,[1]; even at 0° C.,high solubility
same,solubility,"[1]; usual buffers, in currant buffers, at 4° C., read-out: solubility",> 60 mg/mL
same,solubility,"[1]; water, Tris-HCl and phosphate buffers, even at 0° C., read-out: solubility in water and usual buffers",≥ 200000 µM
same,solubility in water and organic solvents,"[1]; water, alcohols, methylene chloride, tetrahydrofuranne, DMSO",very soluble
same,stability of solutions,[2],stable for several weeks
same,CMC,[3],17 mM
same,CMC,[4],14.5 mM and 15 mM
same,CMC,[5],19.5 mM
same,critical micellar concentration (CMC),"[5]; summary value, method not named at the place",19.5 mM and 6.5 g/l
same,dialysis time after which surfactant was no longer detected,[6],about 18 h
same,drop of concentration in the central compartment,[6]; upon 3 h of dialysis,50%
same,ratio protein extracted per detergent,"[7]; 75 mM HECAMEG, purple membrane",9 ug of protein/μmol of detergent
same,membrane protein extraction below the CMC,[7]; concentrations below the CMC,inefficient
same,polypeptides extracted (including spiralin) of 28 detected in the membrane,[8]; 60 to 65 mM surfactant,12
same,solubilization of the fibril protein,[8]; S. melliferum membrane,not able to solubilize the fibril protein
same,antigenicity of spiralin after solubilization,spiralin,remained highly antigenic
same,absorption maximum (λmax) of bacteriorhodopsin,bacteriorhodopsin; upon extraction with HECAMEG,550 nm
same,inhibition of enzyme by the surfactant,[9],not inhibited
same,Vmax ± SD,"[9]; HECAMEG 0.1%, 3 mM",163 ± 41 µmol/min
same,Km,"[9]; HECAMEG 0.1%, 3 mM",947 ± 52 µM
same,Vmax ± SD,"[9]; HECAMEG 1%, 30 mM",357 µmol/min and 357 ± 50 µmol/min
same,Km,"[9]; HECAMEG 1%, 30 mM",901 ± 65 µM
same,effect on Km and Vmax below the CMC,[9]; below the CMC,neither Km nor Vmax was significantly modified
same,inhibition of enzyme by the surfactant,[10],not inhibited
same,Vmax ± SD,"[10]; HECAMEG 0.1%, 3 mM",4.0 ± 0.5 µmol/min
same,Km,"[10]; HECAMEG 0.1%, 3 mM",12.5 ± 1.2 µM
same,Vmax ± SD,"[10]; HECAMEG 1%, 30 mM",10.3 ± 1.2 µmol/min and 10.3 µmol/min
same,Km,"[10]; HECAMEG 1%, 30 mM",3.3 ± 0.6 µM
same,change of affinity of the enzyme for its substrate,[10]; above the CMC (30 mM),increased fourfold
same,effect on Km and Vmax below the CMC,[10]; below the CMC,neither Km nor Vmax was significantly modified
same,change of Vmax,[11]; 30 mM surfactant,decreased threefold
same,Vmax ± SD,"[11]; HECAMEG 0.1%, 3 mM",143 ± 16.5 µmol/min
same,Km,"[11]; HECAMEG 0.1%, 3 mM",62 ± 10 µM
same,Vmax ± SD,"[11]; HECAMEG 1%, 30 mM",30.5 ± 0.4 µmol/min
same,Km,"[11]; HECAMEG 1%, 30 mM",18.1 ± 0.6 µM
same,enzyme activity above the CMC,[11]; above the CMC,decreased
same,effect on enzyme below the CMC,[11]; below the CMC,apparent activation
same,change of Vmax,[12]; 30 mM surfactant,increased about threefold
same,Vmax ± SD,"[12]; HECAMEG 0.1%, 3 mM",(609 ± 30) × 10^-3 μmol/min
same,Vmax ± SD,"[12]; HECAMEG 1%, 30 mM",(1238 ± 4) × 10^-3 μmol/min
same,enzyme activity above the CMC,[12]; above the CMC,increased
same,effect on enzyme below the CMC,[12]; below the CMC,apparent activation
"CCCCCCCCO[C@H]1O[C@H](CO)[C@@H](O)[C@H](O)[C@H]1O [OG, n-octylα-D glucopyranoside, reference compound]",CMC,[3],25 mM
same,CMC,[5],25 mM
same,CMC of comparison surfactants,[13],25 mM
"CCCCCCCCCCCCOS(=O)(=O)[O-].[Na+] [SDS, sodium dodecyl sulfate, reference compound]",absorption maximum of bacteriorhodopsin preparation,bacteriorhodopsin; membrane solubilized with 1% SDS,390 nm
same,enzyme activity upon treatment with SDS,[9]; 35 mM SDS,completely inhibited
same,enzyme activity upon treatment with SDS,[10]; 35 mM SDS,completely inhibited
same,enzyme activity with SDS,[11]; 35 mM SDS,fully inhibited
same,enzyme activity with SDS,[12]; 35 mM SDS,fully inhibited
